# Patent US20240252506A1 (Hoffmann-La Roche Inc., priority 2021, published 2024)
# System: Escherichia coli ATCC 25922
# Assay: Minimal Inhibitory Concentration (MIC) determination, broth microdilution (CLSI M07-A10)
# Format: cell-based
# Settings: Escherichia coli, ATCC25922, strain Escherichia coli ATCC 25922, 18-24 hours at 35±2° C., lowest concentration for complete growth inhibition (no visible growth), read-out: Escherichia coli growth inhibition MIC
# Method: Minimal Inhibitory Concentration (MIC) Determination:
# The MIC of antibacterial compounds against multiple species and strains was determined using the broth microdilution method according to M07-A10 Clinical and Laboratory Standards Institute (CLSI) guidelines, using the appropriate broth medium. In short, the compound plates were prepared by dispensing 100 μL of each stock solution in the first well of a 96 well microtiter plate (MTP) at a concentration 100-fold higher than the final concentration desired in broth. Eleven serial 2-fold dilutions of the highest concentration were made in DMSO for new compounds and in water (or appropriate solution) for reference compounds [2]. 1 μL of each well was transferred in a new MTP, which served as the test plate by subsequent inoculation. This bacterial suspension was prepared from strains that were first sub-cultured on agar plates and incubated for 18-24 hours as appropriate. Following incubation, the inoculum was prepared from isolated colonies and adjusted to 0.5 McFarland turbidity standard (1 to 2×10^8 Colony Forming Units (CFU)/mL) in 0.9% saline. The bacterial suspension was then diluted 1:200 in appropriate sterile medium and within 15 minutes 100 μL/well were dispensed. Negative controls (lack of bacterial cells) and growth control wells (lack of compound) were included in all plates. MTPs were incubated for 18-24 hours at 35±2° C. in ambient air. The MIC value of each compound, expressed as μg/mL, was determined as the lowest concentration required for complete growth inhibition (no visible growth). • [1] CLSI (2015) Methods for dilution antimicrobial susceptibility tests for bacteria that grow aerobically; Approved Standard, Tenth Edition. CLSI Document M7-A10 (ISBN 1-56238-987-4). Wayne, PA: Clinical and Laboratory Standards Institute, 19087, USA. • [2] CLSI (2017) Performance Standards for Antimicrobial Susceptibility Testing; Twenty-Fifth Informational Supplement. CLSI Document M100-S27, CLSI, Wayne, Pennsylvania 19087, USA.
# Table 1 provides the Minimal Inhibitory Concentrations (MIC) in micrograms per millilitre of the compounds of present invention obtained against the strain Escherichia coli ATCC 25922.
row,MIC,Structure (SMILES)
1,0.125 µg/mL,"CN(C)CCn1nnc2c(F)c3c(cc21)CC(CN1CCC2(CC1)CN(c1cnc4c(n1)NC(=O)CO4)C(=O)O2)C3 (stereo not drawn) [Example 65, 6-[8-[[3-[2-(Dimethylamino)ethyl]-8-fluoro-6,7-dihydro-5H-cyclopenta[f]benzotriazol-6-yl]methyl]-2-oxo-1-oxa-3,8-diazaspiro[4.5]decan-3-yl]-4H-pyrazino[2,3-b][1,4]oxazin-3-one]"
2,≤ 0.06 µg/mL,"NCCn1nnc2c(F)c3c(cc21)CC(CN1CCC2(CC1)CN(c1cnc4c(n1)NC(=O)CO4)C(=O)O2)C3 (stereo not drawn) [Example 75, 6-[8-[[3-(2-aminoethyl)-8-fluoro-6,7-dihydro-5H-cyclopenta[f]benzotriazol-6-yl]methyl]-2-oxo-1-oxa-3,8-diazaspiro[4.5]decan-3-yl]-4H-pyrazino[2,3-b][1,4]oxazin-3-one]"
3,0.125 µg/mL,"CNCC(=O)Nc1nc2c(F)c3c(c(F)c2[nH]1)CC(CN1CCC2(CC1)CN(c1cnc4c(n1)NC(=O)CO4)C(=O)O2)C3 [Example 35, N-[4,8-difluoro-6-[[2-oxo-3-(3-oxo-4H-pyrazino[2,3-b][1,4]oxazin-6-yl)-1-oxa-3,8-diazaspiro[4.5]decan-8-yl]methyl]-3,5,6,7-tetrahydrocyclopenta[f]benzimidazol-2-yl]-2-(methylamino)acetamide]"
4,0.5 µg/mL,"CN(CCn1nc2c(F)c3c(c(F)c2n1)CC(CN1CCC2(CC1)CN(c1cnc4c(n1)NC(=O)CO4)C(=O)O2)C3)C(=O)CN.O=CO [Example 165, 2-Amino-N-[2-[4,8-difluoro-6-[[2-oxo-3-(3-oxo-4H-pyrazino[2,3-b][1,4]oxazin-6-yl)-1-oxa-3,8-diazaspiro[4.5]decan-8-yl]methyl]-6,7-dihydro-5H-cyclopenta[f]benzotriazol-2-yl]ethyl]-N-methyl-acetamide;formic acid]"
5,0.25 µg/mL,"NCCn1nnc2c3c(c(F)cc21)CC(CN1CCC2(CC1)CN(c1cnc4c(n1)NC(=O)CO4)C(=O)O2)C3 (stereo not drawn) [Example 85, 6-[8-[[3-(2-aminoethyl)-5-fluoro-7,8-dihydro-6H-cyclopenta[e]benzotriazol-7-yl]methyl]-2-keto-1-oxa-3,8-diazaspiro[4.5]decan-3-yl]-4H-pyrazino[2,3-b][1,4]oxazin-3-one]"
6,0.25 µg/mL,"CNCc1nc2cc3c(c(F)c2o1)CC(CN1CCC2(CC1)CN(c1cnc4c(n1)NC(=O)CO4)C(=O)O2)C3 (single isomer, unassigned) [Example 95, 6-[8-[[8-fluoro-2-(methylaminomethyl)-6,7-dihydro-5H-cyclopenta[f][1,3]benzoxazol-6-yl]methyl]-2-keto-1-oxa-3,8-diazaspiro[4.5]decan-3-yl]-4H-pyrazino[2,3-b][1,4]oxazin-3-one]"
7,0.25 µg/mL,"CNCCc1nc2cc3c(c(F)c2[nH]1)CC(CN1CCC2(CC1)CN(c1cnc4c(n1)NC(=O)CO4)C(=O)O2)C3 (stereo not drawn) [Example 69, 6-[8-[[8-fluoro-2-[2-(methylamino)ethyl]-1,5,6,7-tetrahydrocyclopenta[f]benzimidazol-6-yl]methyl]-2-oxo-1-oxa-3,8-diazaspiro[4.5]decan-3-yl]-4H-pyrazinio[2,3-b][1,4]oxazin-3-one]"

# Same assay, conditions: strain Escherichia coli ATCC 25922, 18-24 hours at 35±2° C., lowest concentration for complete growth inhibition (no visible growth)
row,Escherichia coli growth inhibition MIC,Structure (SMILES)
1,0.25 µg/mL,"N[C@@H](CO)c1nc2cc3c(c(F)c2o1)CC(CN1CCC2(CC1)CN(c1cnc4c(n1)NC(=O)CO4)C(=O)O2)C3 (stereo partly drawn) [Example 144, 6-[8-[[2-[(1S)-1-Amino-2-hydroxy-ethyl]-8-fluoro-6,7-dihydro-5H-cyclopenta[f][1,3]benzoxazol-6-yl]methyl]-2-oxo-1-oxa-3,8-diazaspiro[4.5]decan-3-yl]-4H-pyrazino[2,3-b][1,4]oxazin-3-one]"

# Same assay, conditions: strain Escherichia coli ATCC 25922, 18-24 hours at 35±2° C., lowest concentration for complete growth inhibition (no visible growth), hydrochloride
row,Escherichia coli growth inhibition MIC,Structure (SMILES)
1,0.125 µg/mL,"C[C@H](N)Cn1nnc2c(F)c3c(c(F)c21)CC(CN1CCC2(CC1)CN(c1cnc4c(n1)NC(=O)CO4)C(=O)O2)C3.Cl (single isomer, unassigned) [Example 131]"
